# Experimental data published in patent publication US9241951B2, “Of gastrointestinal health, immunity and performance by dietary intervention” (BIOATLANTIS LTD, priority 2009, dated 2016).
# What was measured:
# Assay type in all cases: in vivo, pig
# Enterobacteriaceae = test: Microbial analysis of ileum and colon digesta, Example 5
# Text: (§1) 21 pigs with an initial weight of 17.9±2.2 Kg were assigned to one of the 3 dietary treatments: (T1) control; (T2) basal diet+300 ppm LAM; (T3) basal diet+600 ppm LAM. Experimental feeding continued for 21 days ad libitum. Diets were formulated to have similar digestible energy (DE) (14.4 MJ/Kg) and ileal digestible lysine (12.5 g/Kg). Post-slaughter, digestive tract was removed by dissection and digesta was removed from the ileum. Each digesta sample was serially diluted in maximum recovery diluent (MRD, Oxoid, Basingstoke, UK), and spread plated onto selective agars. Bifidobacteria, Lactobacilli and Enterobacteria species were isolated according to the methods described by Pierce et al. (2005). Digesta samples used to measure VFA concentration were collected from the caecum and the same location in the ileum and colon. VFA analysis was performed using gas liquid chromatography (GLC) according to the method described by Pierce et al., (2005).
# Bifidobacteria = test: as above; conditions: ileum; LAM 0-600 ppm
# Text: as §1
# Lactobacilli = test: as above; conditions: ileum; LAM 0-600 ppm
# Text: as §1
# [1] = VFA analysis and digesta pH in ileum, caecum and colon, Example 5; conditions: for total VFAs: increasing LAM
# Text: as §1
# [2] = Animal performance and nutrient digestibility, Example 5; conditions: increasing LAM 0, 300, 600 ppm, 21 days
# Text: (§2) 21 pigs with an initial weight of 17.9±2.2 Kg were assigned to one of the 3 dietary treatments: (T1) control; (T2) basal diet+300 ppm LAM; (T3) basal diet+600 ppm LAM. Experimental feeding continued for 21 days ad libitum. Diets were formulated to have similar digestible energy (DE) (14.4 MJ/Kg) and ileal digestible lysine (12.5 g/Kg).
# IL-6 = test: Cytokine gene expression after ex-vivo LPS tissue challenge of ileum and colon, Example 5
# Text: as §2
# (§3) Ileal and colonic tissues were sampled from the same location as described for digesta samples. Excised tissues were emptied by dissecting them along the mesentery and rinsing them using sterile phosphate buffered saline (PBS) (Oxoid). Tissue sections 1 cm^3, which had been stripped of the overlying smooth muscle were cut from each tissue. Two sections from each tissue were placed in 1 ml of Dulbecco's Modified Eagle's Medium (DMEM) (Gibco), one in the presence of bacterial lipopolysaccharide (LPS) (Sigma Aldrich) at a concentration of 10 μg/ml. The other tissue sample was used as a control and incubated in sterile DMEM in the absence of LPS. Both challenged and unchallenged tissues were incubated at 37° C. for 90 minutes before being removed, blotted dry and weighed. Approximately 1-2 g of porcine ileum and colon tissues were cut into small pieces and collected in 15 ml of RNAlater® (Applied Biosystems, Foster City, Calif.). RNAlater® was removed before storing the samples at −80° C. until used for RNA extraction.
# (§4) Tissue samples for RNA extraction were removed from −86° C. and homogenised. 500 μl of lysis solution/2-ME was added to each sample and these were mechanically disrupted using one 5 mm stainless steel bead per sample. These were then placed in a Tissue Lyser (Qiagen) and lysates were homogenised for 3 mins and transferred to a GenElute Filtration Column (Sigma Aldrich) and RNA was extracted. 1 µg of total RNA was used for cDNA synthesis using oligo(dT)20 primer in a final reaction volume of 20 μl with Superscript™ III First-Strand synthesis system for reverse transcriptase-polymerase chain reaction (RT-PCR) (Invitrogen Life Technologies, Carlsbad, Calif.). At the last step of cDNA synthesis, treatment with E. coli RNase H (Invitrogen Corp.) was performed to digest the remaining RNA/mRNA template, resulting in the production of the single-stranded cDNA template for subsequent qRT-PCR reactions.
# (§5) All porcine primers for the cytokine genes interferon gamma (IFN-γ), interleukin-1α (IL-1α), IL-6, IL-8, IL-10, IL-17, tumour necrosis factor (TNF-α), the mucin genes (MUCs 1, 2, 4, 5AC, 12, 13 and 20) and three reference genes, β-actin (ACTB), Glyceraldehyde-3-phosphate dehydrogenase (GAPDH) and Peptidylprolyl isomerase A (PPIA), were designed using Primer Express™ (PE Applied Biosystems, Foster City, Calif.) and synthesised by MWG Biotech (Milton Keynes, UK). These reference genes were previously validated for use in porcine tissue and qPCR was then carried out on the cDNA using the ABI PRISM 7900HT Fast sequence detection system for 96-well plates (Applied Biosystems, Foster City, Calif.). All samples were prepared in duplicate using SYBR Green Fast PCR Master Mix (Applied Biosystems, Foster City, Calif.), cDNA as template and specific primers for the genes selected. For each reaction 5 μl cDNA, 1.2 μl (forward and reverse primer mix, 5 μM), 10 μl Fast SYBR Green PCR Master Mix (PE Applied Biosystems, Foster City, Calif.) was added and made up to a final volume of 20 μl. The two step PCR program was as follows: 95° C. for 10 minutes for 1 cycle followed by 95° C. for 15 seconds and 60° C. for 1 minute for 40 cycles. The raw Ct values for the reference genes were converted to relative quantities using the formula Q=E ^ΔCt where E is the PCR efficiency of the assay and ^ΔCt is the value calculated for the difference between the lowest Ct value for each gene minus the Ct value of the sample in question. The relative quantities of the endogenous controls were then analysed for stability in geNorm (Vandesompele et al., 2002). […]
# IL-17 = test: as above; conditions: ileum, ex-vivo LPS challenge (10 μg/ml, 90 minutes)
# Text: as §2, §3, §4, §5
# IL-1α = test: as above; conditions: ileum, ex-vivo LPS challenge (10 μg/ml, 90 minutes)
# Text: as §2, §3, §4, §5
# IL-10 = test: as above; conditions: ileum, ex-vivo LPS challenge (10 μg/ml, 90 minutes)
# Text: as §2, §3, §4, §5
# TNF-α = test: as above; conditions: ileum, ex-vivo LPS challenge (10 μg/ml, 90 minutes)
# Text: as §2, §3, §4, §5
# IL-8 = test: as above
# Text: as §2, §3, §4, §5
# [3] = ileum, ex-vivo LPS challenge (10 μg/ml, 90 minutes)
substance,measurement,setting,value
laminarin,Enterobacteriaceae,"Enterobacteriaceae; colon, LAM from Laminaria digitata, 300 and 600 ppm",decrease
same,Enterobacteriaceae populations,"Enterobacteriaceae; ileum, LAM 0-600 ppm",no effect
same,Bifidobacteria populations,Bifidobacteria,no effect
same,Lactobacilli populations,Lactobacilli,no effect
same,digesta pH,[1]; any intestinal region,no significant alteration
same,total VFAs,[1]; caecum,significant increase
same,total VFAs,[1]; ileum or colon,no significant effects
same,"nutrient digestibility coefficients (DM, OM, ash, N or GE)",[2],no effect
same,"performance (food intake, daily gain or food conversion ratio)",[2],no effect
same,IL-6 expression,"IL-6; colon, LPS-challenged tissue, LAM 300 ppm",increase
same,IL-6 gene expression,IL-6; [3],no effect
same,IL-17 gene expression,IL-17,no effect
same,IL-1α gene expression,IL-1α,no effect
same,IL-10 gene expression,IL-10,no effect
same,TNF-α gene expression,TNF-α,no effect
same,IL-8 gene expression,"IL-8; colon, LPS-challenged tissue, increasing LAM",linear increase
same,IL-8 gene expression,IL-8; [3],no effect
